Data taken from patent US9951076B2, “Deuterated pentylenetetrazoles for improving cognitive function” (Balance Therapeutics, Inc., priority 2011, dated 2018).

How the values were obtained:
[1] = Metabolic stability in human liver microsomes; type: in vitro ADME; details: for t1/2 increase over t1/2 of PTZ / in vitro t1/2 compared to the t1/2 of PTZ: human liver microsomes; for in vitro t1/2 compared to the t1/2 of PTZ: under the assay conditions tested; for half-life at 1 μM / microsomal CLint at 1 μM: pH 7.4, 1 mg/mL human liver microsomes, 1 μM test compound, NADPH regenerating system, 37° C., 0-45 min
Protocol: Human liver microsomes (Lot# FJM) were obtained from Celsis (Baltimore, Md.). Components of the NADPH regenerating system solution A (Lot#29850) and B (Lot#28594) were obtained from BD Gentest (Woburn, Mass.). […] All solvents and buffers were obtained from commercial sources and used without further purification.
NADPH regenerating system (1.3 mM NADP^+, 3.3 mM glucose-6-phosphate, 0.4 U/mL glucose-6-phosphate dehydrogenase, and 3.3 mM magnesium chloride) were prepared by mixing 5 volume of solution A and 1 volume of solution B and pre-warmed at 37° C. in a shaking water bath. Reactions were initiated by adding NADPH regenerating system to the incubation mixtures. After 0, 5, 10, 15, 30 and 45 min of incubation, 0.1 mL reaction mixtures were removed from the incubation plate and mixed with 0.15 mL of ice-cold acetonitrile in an appropriate well of a 96-well crash plate. The 96-well crash plate was placed on ice for 15 min, and samples were centrifuged (2,500 g, 10 min, 4° C.) to precipitate protein. The supernatants were diluted 1:1 (v/v) with water containing 0.015 μM verapamil (internal standard) in 96-well shallow injection plate, which was sealed and submitted for LC/MS or LC/MS/MS analysis utilitzing a API 150 single quadrupole mas spectrometer.
The residual compound remaining (% R) was determined from LC/MS peak areas by comparison to a zero time point. Metabolic half-life (t1/2) and intrinsic clearance (CLint) values were calculated from the slope of ln(%) plotted vs. time.

[2] = cited from earlier work
[3] = orally administered, humans; cited from earlier work

[2H]C1([2H])CC([2H])([2H])c2nnnn2C([2H])([2H])C1 [Compound 4, 6,6,8,8,10,10-d6-6,7,8,9-tetrahydro-5H-tetrazolo[1,5-a]-azepine]
t1/2 increase over t1/2 of PTZ [1]: 8.8%
in vitro t1/2 compared to the t1/2 of PTZ [1]: increased
half-life at 1 μM [1]: 9.45 h
microsomal CLint at 1 μM [1]: 1.2 µL/min/mg

[2H]C1([2H])Cc2nnnn2CC([2H])([2H])C1([2H])[2H] [Compound 3]
t1/2 increase over t1/2 of PTZ [1]: −2.9%
half-life at 1 μM [1]: 8.43 h
microsomal CLint at 1 μM [1]: 1.4 µL/min/mg

C[C@]12CC[C@H]3[C@@H](CCC4=CC(=O)CC[C@@]43C)[C@@H]1CC[C@@H]2O [testosterone, reference compound]
microsomal CLint at 1 μM [1]: 76 µL/min/mg

C1CCc2nnnn2CC1 [PTZ, pentylenetetrazole]
half-life at 1 μM [1]: 8.68 h
microsomal CLint at 1 μM [1]: 1.3 µL/min/mg
time of peak concentration in blood ([2]; after intravenous (IV) or intraperitoneal (IP) delivery): ≤ 10 min
plasma half-life ([2]; in vivo): about 60 minutes
kindling dose [3]: approximately 20 mg/kg

[2H]C1([2H])c2nnnn2C([2H])([2H])C([2H])([2H])C([2H])([2H])C1([2H])[2H] [Compound 1, d10-6,7,8,9-Tetrahydro-5H-tetrazolo[1,5-a]azepine]
t1/2 increase over t1/2 of PTZ [1]: 45.1%
in vitro t1/2 compared to the t1/2 of PTZ [1]: increased
half-life at 1 μM [1]: 12.6 h
microsomal CLint at 1 μM [1]: 0.9 µL/min/mg

[2H]C1([2H])CCCC([2H])([2H])n2nnnc21 [Compound 2, 6,6,10,10-d4-6,7,8,9-Tetrahydro-5H-tetrazolo[1,5-a]azepine]
t1/2 increase over t1/2 of PTZ [1]: 6.3%
in vitro t1/2 compared to the t1/2 of PTZ [1]: increased
half-life at 1 μM [1]: 9.23 h
microsomal CLint at 1 μM [1]: 1.3 µL/min/mg
